The values below come from ChEMBL document CHEMBL1145170, “Development of a three-dimensional model for the N-methyl-D-aspartate NR2A subunit” (J Med Chem, 2005).

In experiment [1] the target is T1, Glutamate receptor ionotropic, NMDA 2A (Rattus norvegicus, UniProt Q00959). The experiment is described as follows: Inhibition of [3H]Glu binding to rat N-methyl-D-aspartic acid receptor 2A.
Experiment [2] has as its target T1, Glutamate receptor ionotropic, NMDA 2A. Nature of the experiment: Inhibition of [3H]CPP binding to rat N-methyl-D-aspartic acid receptor 2A.

Structures are written as SMILES. pIC50: −log10 of the molar value.

T1 sequence (Q00959 whole entry): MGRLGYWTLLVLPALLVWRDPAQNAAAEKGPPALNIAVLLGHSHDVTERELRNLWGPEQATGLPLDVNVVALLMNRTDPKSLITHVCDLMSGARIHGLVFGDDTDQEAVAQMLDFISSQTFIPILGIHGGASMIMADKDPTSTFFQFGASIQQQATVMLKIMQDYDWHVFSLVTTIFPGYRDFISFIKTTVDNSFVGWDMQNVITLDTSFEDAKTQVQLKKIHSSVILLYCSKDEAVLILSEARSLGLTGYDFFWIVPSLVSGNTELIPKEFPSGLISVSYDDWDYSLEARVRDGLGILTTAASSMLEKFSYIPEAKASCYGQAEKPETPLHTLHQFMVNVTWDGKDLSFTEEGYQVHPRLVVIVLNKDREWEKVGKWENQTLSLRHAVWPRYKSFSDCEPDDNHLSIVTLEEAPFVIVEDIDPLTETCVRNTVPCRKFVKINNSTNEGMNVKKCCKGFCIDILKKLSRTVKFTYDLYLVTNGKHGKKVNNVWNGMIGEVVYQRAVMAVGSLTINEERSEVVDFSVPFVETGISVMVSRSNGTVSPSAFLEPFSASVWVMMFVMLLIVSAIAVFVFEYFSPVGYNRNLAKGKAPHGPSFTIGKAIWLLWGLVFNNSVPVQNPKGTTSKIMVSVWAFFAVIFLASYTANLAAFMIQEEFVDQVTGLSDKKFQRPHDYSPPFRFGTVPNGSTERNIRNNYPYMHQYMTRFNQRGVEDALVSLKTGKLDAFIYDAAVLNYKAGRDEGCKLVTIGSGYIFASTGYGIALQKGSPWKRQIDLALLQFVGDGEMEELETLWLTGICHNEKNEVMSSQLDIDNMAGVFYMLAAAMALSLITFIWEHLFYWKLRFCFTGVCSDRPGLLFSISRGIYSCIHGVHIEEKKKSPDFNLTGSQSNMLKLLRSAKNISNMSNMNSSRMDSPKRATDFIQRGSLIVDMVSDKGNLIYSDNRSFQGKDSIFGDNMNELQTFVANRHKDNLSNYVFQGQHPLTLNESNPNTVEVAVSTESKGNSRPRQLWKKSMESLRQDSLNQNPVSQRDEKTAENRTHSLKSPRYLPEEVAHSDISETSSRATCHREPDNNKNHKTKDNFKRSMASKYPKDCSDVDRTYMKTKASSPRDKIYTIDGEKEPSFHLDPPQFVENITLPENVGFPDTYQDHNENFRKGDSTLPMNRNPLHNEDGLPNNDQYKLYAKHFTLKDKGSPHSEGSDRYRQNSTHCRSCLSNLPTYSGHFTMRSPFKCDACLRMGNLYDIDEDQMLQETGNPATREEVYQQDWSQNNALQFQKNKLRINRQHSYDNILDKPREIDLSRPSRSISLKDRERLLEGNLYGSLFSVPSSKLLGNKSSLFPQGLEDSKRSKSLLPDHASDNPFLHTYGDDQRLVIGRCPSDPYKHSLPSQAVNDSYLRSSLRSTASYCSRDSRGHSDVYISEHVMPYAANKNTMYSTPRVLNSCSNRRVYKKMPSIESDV

For `CCC/C(=C\[C@@H](N)C(=O)O)CP(=O)(O)O`, in experiment [1], the pIC50 is 6.64. In the case of `N[C@H](CC(=O)CP(=O)(O)O)C(=O)O`, in experiment [2], the pIC50 is 6.96. Turning to `N[C@@H](CCCP(=O)(O)O)C(=O)O`, the pIC50 in experiment [2] was 6.54; in experiment [1] it was 5.82.

As to `O=C(O)[C@@H]1C[C@H](CP(=O)(O)O)CCN1` (single isomer, unassigned) [SELFOTEL], the negative logarithm of the IC50 (pIC50) in experiment [2] was 7.02; in experiment [1], 6.08. For the compound `C/C(=C\[C@@H](N)C(=O)O)CP(=O)(O)O` [CGP-37849], the figures for the pIC50 in experiment [2] and in experiment [1] were 7.46 and 6.66, respectively.
